According to US20250223307A1, “MDM2/MDMX DOUBLE-TARGET INHIBITOR COMPOUND, PRODRUG, PHARMACEUTICAL COMPOSITION, AND PREPARATION METHOD THEREFOR AND USE THEREOF” (GLOBAL HEALTH DRUG DISCOVERY INSTITUTE, priority 2022, published 2025):

Experiments:
MDMX = molecular target: T1, MDMX (Homo sapiens, UniProt O15151); experiment: HTRF test: inhibition of MDMX-p53 protein binding
T1 sequence (O15151 2-134): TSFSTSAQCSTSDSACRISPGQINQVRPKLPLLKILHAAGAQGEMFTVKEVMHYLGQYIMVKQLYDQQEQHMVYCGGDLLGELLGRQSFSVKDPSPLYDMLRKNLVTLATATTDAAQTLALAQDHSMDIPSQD

MDM2 = MDM2 (Homo sapiens, UniProt Q00987); experiment: HTRF test: inhibition of MDM2-p53 protein binding
MDM2, sequence (Q00987 2-138): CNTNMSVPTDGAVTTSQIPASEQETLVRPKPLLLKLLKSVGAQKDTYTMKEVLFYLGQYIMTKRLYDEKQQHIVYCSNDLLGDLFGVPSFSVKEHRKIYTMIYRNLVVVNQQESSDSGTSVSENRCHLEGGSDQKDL

[1] = test system: Blood cancer cells RS4; 11; experiment: CellTiter Glo test: growth inhibition of cells; type: cell-based; conditions: Homo sapiens, 11 cells, 72 h, cell viability
Description: Test of Candidate Compounds on Growth Inhibition of Cells Determined by CellTiter Glo
Blood cancer cells RS4; 11 were inoculated into the 96-well cell culture plate through Multidrop 3000 cells per well, with a volume of 100 μL. The final compound concentration ranged from 50 μM to 0.01 μM at 9 concentration gradients and the DMSO final concentration was 0.1%. The cells and compounds were co-incubated in a cell incubator at 37° C. for 72 h, a CellTiter-Glo Luminescent Cell Viability Assay reagent was added 100 μL/well, the cells and compound were uniformly mixed and incubated at room temperature for 10 min, and Envision reading was performed. A sample treated with 50 μM of a positive compound was taken as a positive control and a sample treated with 100 nL of DMSO was taken as a negative control.

| SMILES | IC50 (MDMX) [nM] | IC50 (MDM2) [nM] | IC50 [1] [nM] |
| --- | --- | --- | --- |
| N#Cc1ccc(C(C(=O)NCCO)N2C(=O)N/C(=C\c3cn(P(=O)(O)O)c4c(F)c(Cl)ccc34)C2=O)cc1F (stereo not drawn) [Compound 56, (Z)-(6-chloro-3-((1-(1-(4-cyano-3-fluorophenyl)-2-((2-hydroxyethyl)amino)-2-oxyethyl)-2,5-dioxoimidazolidin-4-ylene)methyl)-7-fluoro-1H-indol-1-yl)phosphonic acid] | 10 to 100 | 10 to 100 | 1000 to 10000 |
| Cc1c(Cl)ccc2c(/C=C3\NC(=O)N(C(C(=O)NC45CC(O)(C4)C5)c4ccc(F)c(F)c4)C3=O)c[nH]c12 (stereo not drawn) [Compound 57, (Z)-2-(4-((6-chloro-7-methyl-1H-indol-3-yl)methylene)-2,5-dioxoimidazolidin-1-yl)-2-(3,4-difluorophenyl)-N-(3-hydroxylbicyclo[1.1.1]pentan-1-yl)acetamide] | < 10 | < 10 | ≤ 1000 |
| N#Cc1ccc(C(C(=O)NCCO)N2C(=O)N/C(=C\c3c[nH]c4c(F)c(Cl)ccc34)C2=O)cc1 (stereo not drawn) [Compound 58, (Z)-2-(4-((6-chloro-7-fluoro-1H-indol-3-yl)methylene)-2,5-dioxoimidazolidin-1-yl)-2-(4-cyanophenyl)-N-(2-hydroxyethyl)acetamide] | < 10 | < 10 | ≤ 1000 |
| O=C(NCCO)C(c1ccc(Cl)cc1)N1C(=O)N/C(=C\c2c[nH]c3c(F)c(Cl)ccc23)C1=O (stereo not drawn) [Compound 59, (Z)-2-(4-((6-chloro-7-fluoro-1H-indol-3-yl)methylene)-2,5-dioxoimidazolidin-1-yl)-2-(4-chlorophenyl)-N-(2-hydroxyethyl)acetamide] | 10 to 100 | < 10 | ≤ 1000 |
| Cc1c(Cl)ccc2c(/C=C3\NC(=O)N(C(C(=O)NCCO)c4ccc(C#N)cc4)C3=O)c[nH]c12 (stereo not drawn) [Compound 60, (Z)-2-(4-((6-chloro-7-methyl-1H-indol-3-yl)methylene)-2,5-dioxoimidazolidin-1-yl)-2-(4-cyanophenyl)-N-(2-hydroxyethyl)acetamide] | < 10 | < 10 | ≤ 1000 |
| N#Cc1ccc(C(C(=O)NCCO)N2C(=O)N/C(=C\c3c[nH]c4cc(Cl)ccc34)C2=O)cc1 (stereo not drawn) [Compound 61, (Z)-2-(4-((6-chloro-1H-indol-3-yl)methylene)-2,5-dioxoimidazolidin-1-yl)-2-(4-cyanophenyl)-N-(2-hydroxyethyl)acetamide] | 10 to 100 | < 10 | 1000 to 10000 |
| O=C(NCCO)C(c1ccc(Cl)cc1)N1C(=O)N/C(=C\c2c[nH]c3cc(Cl)ccc23)C1=O (stereo not drawn) [Compound 62, (Z)-2-(4-((6-chloro-1H-indol-3-yl)methylene)-2,5-dioxoimidazolidin-1-yl)-2-(4-chlorophenyl)-N-(2-hydroxyethyl)acetamide] | 10 to 100 | < 10 | ≤ 1000 |
| Cc1c(Cl)ccc2c(/C=C3\NC(=O)N(C(C(=O)NCC45CCC(O)(CC4)CC5)c4ccc(F)c(F)c4)C3=O)c[nH]c12 (stereo not drawn) [Compound 64, (Z)-2-(4-((6-chloro-7-methyl-1H-indol-3-yl)methylene)-2,5-dioxoimidazolidin-1-yl)-2-(3,4-difluorophenyl)-N-((4-hydroxylbicyclo[2.2.2]octan-1-yl)methyl)acetamide] | < 10 | < 10 | ≤ 1000 |
| Cc1c(Cl)ccc2c(/C=C3\NC(=O)N(C(C(=O)NC45CCC(O)(CC4)CC5)c4ccc(F)c(F)c4)C3=O)c[nH]c12 (stereo not drawn) [Compound 66, (Z)-2-(4-((6-chloro-7-methyl-1H-indol-3-yl)methylene)-2,5-dioxoimidazolidin-1-yl)-2-(3,4-difluorophenyl)-N-(4-hydroxylbicyclo[2.2.2]octan-1-yl)acetamide] | < 10 | < 10 | ≤ 1000 |
| Cc1c(Cl)ccc2c(/C=C3\NC(=O)N(C(C(=O)NCCO)c4ccc(C#N)c(F)c4)C3=O)c[nH]c12 (stereo not drawn) [Compound 67, (Z)-2-(4-((6-chloro-7-methyl-1H-indol-3-yl)methylene)-2,5-dioxoimidazolidin-1-yl)-2-(4-cyano-3-fluorophenyl)-N-(2-hydroxyethyl)acetamide] | < 10 | < 10 | ≤ 1000 |
| Cc1c(Cl)ccc2c(/C=C3\NC(=O)N(C(C(=O)NCC45CC(O)(C4)C5)c4ccc(F)c(F)c4)C3=O)c[nH]c12 (stereo not drawn) [Compound 68, (Z)-2-(4-((6-chloro-7-methyl-1H-indol-3-yl)methylene)-2,5-dioxoimidazolidin-1-yl)-2-(3,4-difluorophenyl)-N-((3-hydroxylbicyclo[1.1.1]pentan-1-yl)methyl)acetamide] | < 10 | < 10 | ≤ 1000 |
| O=C1N/C(=C\c2c[nH]c3c(F)c(Cl)ccc23)C(=O)N1C(CO)c1ccc(Cl)cc1 (stereo not drawn) [Compound 69, (Z)-5-((6-chloro-7-fluoro-1H-indol-3-yl)methylene)-3-(1-(4-chlorophenyl)-2-hydroxyethyl)imidazolidine-2,4-dione] | 10 to 100 | 10 to 100 | ≤ 1000 |
| Cc1c(Cl)ccc2c(/C=C3\NC(=O)N(C(CO)c4ccc(Cl)cc4)C3=O)c[nH]c12 (stereo not drawn) [Compound 70, (Z)-5-((6-chloro-7-methyl-1H-indol-3-yl)methylene)-3-(1-(4-chlorophenyl)-2-hydroxyethyl)imidazolidine-2,4-dione] | 10 to 100 | 10 to 100 | ≤ 1000 |
| O=C(NCCO)C(c1ccc(F)c(F)c1)N1C(=O)N/C(=C\c2c[nH]c3c(F)c(Cl)ccc23)C1=O (stereo not drawn) [Compound 72, (Z)-2-(4-((6-chloro-7-fluoro-1H-indol-3-yl)methylene)-2,5-dioxoimidazolidin-1-yl)-2-(3,4-difluorophenyl)-N-(2-hydroxyethyl)acetamide] | < 10 | < 10 | ≤ 1000 |
| O=C1N/C(=C\c2c[nH]c3c(F)c(Cl)ccc23)C(=O)N1C(CO)c1ccc(Cl)c(F)c1 (stereo not drawn) [Compound 77, (Z)-3-(1-(4-chloro-3-fluorophenyl)-2-hydroxyethyl)-5-((6-chloro-7-fluoro-1H-indol-3-yl)methylene)imidazolidine-2,4-dione] | 10 to 100 | 10 to 100 | ≤ 1000 |
| Cc1c(Cl)ccc2c(/C=C3\NC(=O)N(C(CO)c4ccc(Cl)c(F)c4)C3=O)c[nH]c12 (stereo not drawn) [Compound 78, (Z)-3-(1-(4-chloro-3-fluorophenyl)-2-hydroxyethyl)-5-((6-chloro-7-methyl-1H-indol-3-yl)methylene)imidazolidine-2,4-dione] | 10 to 100 | 10 to 100 | ≤ 1000 |
| O=C1N/C(=C\c2c[nH]c3cc(Cl)ccc23)C(=O)N1C(CO)c1ccc(Cl)c(F)c1 (stereo not drawn) [Compound 79, (Z)-5-((6-chloro-1H-indol-3-yl)methylene)-3-(1-(4-chloro-3-fluorophenyl)-2-hydroxyethyl)imidazolidine-2,4-dione] | 10 to 100 | 10 to 100 | ≤ 1000 |
| O=C1N/C(=C\c2c[nH]c3c(F)c(Cl)ccc23)C(=O)N1C(CO)c1ccc(F)cc1 (stereo not drawn) [Compound 84, (Z)-5-((6-chloro-7-fluoro-1H-indol-3-yl)methylene)-3-(1-(4-fluorophenyl)-2-hydroxyethyl)imidazolidine-2,4-dione] | < 10 | < 10 | ≤ 1000 |
| N#Cc1ccc(C(CO)N2C(=O)N/C(=C\c3c[nH]c4c(F)c(Cl)ccc34)C2=O)cc1 (stereo not drawn) [Compound 85, (Z)-4-(1-(4-((6-chloro-7-fluoro-1H-indol-3-yl)methylene)-2,5-dioxoimidazolidin-1-yl)-2-hydroxyethyl)benzonitrile] | < 10 | < 10 | ≤ 1000 |
| O=C1N/C(=C\c2c[nH]c3c(F)c(Cl)ccc23)C(=O)N1C(CO)c1ccc(F)c(F)c1 (stereo not drawn) [Compound 86, (Z)-5-((6-chloro-7-fluoro-1H-indol-3-yl)methylene)-3-(1-(3,4-difluorophenyl)-2-hydroxyethyl)imidazolidine-2,4-dione] | 10 to 100 | 10 to 100 | ≤ 1000 |
| Cc1c(Cl)ccc2c(/C=C3\NC(=O)N(C(CO)c4ccc(C#N)cc4)C3=O)c[nH]c12 (stereo not drawn) [Compound 88, (Z)-4-(1-(4-((6-chloro-7-methyl-1H-indol-3-yl)methylene)-2,5-dioxoimidazolidin-1-yl)-2-hydroxyethyl)benzonitrile] | < 10 | < 10 | ≤ 1000 |
| Cc1c(Cl)ccc2c(/C=C3\NC(=O)N([C@@H](CO)c4ccc(C#N)cc4)C3=O)c[nH]c12 [Compound 96, (R,Z)-4-(1-(4-((6-chloro-7-methyl-1H-indol-3-yl)methylene)-2,5-dioxoimidazolidin-1-yl)-2-hydroxyethyl)benzonitrile] | < 10 | < 10 | ≤ 1000 |
| Cc1c(Cl)ccc2c(/C=C3\NC(=O)N([C@H](CO)c4ccc(C#N)cc4)C3=O)c[nH]c12 [Compound 97, (S,Z)-4-(1-(4-((6-chloro-7-methyl-1H-indol-3-yl)methylene)-2,5-dioxoimidazolidin-1-yl)-2-hydroxyethyl)benzonitrile] | 10 to 100 | 10 to 100 | ≤ 1000 |
| O=C1N/C(=C\c2c[nH]c3c(F)c(Cl)ccc23)C(=O)N1Cc1ccc(Cl)cc1F [Compound 98, (Z)-3-(4-chloro-2-fluorobenzyl)-5-((6-chloro-7-fluoro-1H-indol-3-yl)methylene)imidazolidine-2,4-dione] | > 100 | 10 to 100 | ≤ 1000 |
